How the values were obtained:
[1] = system: acquired pendular nystagmus; settings: physical symptom of multiple sclerosis; cited from earlier work
[2] = system: thermal hyperalgesia and mechanical allodynia; settings: relatively high doses; without obvious effects on motor reflexes; cited from earlier work
[3] = system: adult rats; settings: cited from earlier work
[4] = system: NMDA receptor; settings: noncompetitive antagonist; cited from earlier work
[5] = system: spastic hind limbs of EAE mice; assay: Spasticity (resistance to hindlimb flexion against a strain gauge) in the EAE model in mice; type: in vivo, ABH mice; parameters: Resistance to flexion, Diff of Means: unit not given here
Source text: Induction of EAE. Induction of EAE in animal models is well known in the art. (Raine, Chapter 16, Handbook of Clinical Neurology, vol. 3(47): Demyelinating Diseases, Koetsier, ed., (Elsevier Science Publishers 1985). In the present protocol, 6-8 week ABH mice are immunized with mouse spinal cord homogenate in Freund's complete adjuvant on day 0 & 7. (Baker et al. 1990. J. Neuroimmunol 28:261 O'Neill et al 1992. J. Neuroimmunol. 38:53). Animals will develop relapsing remitting episodes of paralysis at approximately 3-4 week intervals. These will be monitored daily from day 11 onwards to ensure severity levels of paralysis and maintained with humane limits according to the Home Office, Animals (Scientific Procedures) Act […]. Spasticity (stiff hind limbs) after 2-3 relapse episodes (approximately 80-120 days post-induction) will be allowed to develop. Animals with visually spastic limbs will be selected for assessment of the TEST compound.
Resistance to flexion against a strain gauge will be the primary assessment (Baker et al. 2000. Nature), secondary outcome measures will be the presence or absence of spastic tails.
Spasticity. The “stiffness” of spastic limbs is measured using a purpose built strain gauge, and assessed by the resistance force against hindlimb flexion. The limb is extended manually twice prior to measurement of each limb. Limbs showing severe crossing or flexion will not be analyzed. The signal is amplified and digitized using DAS16 card (Amplicon, Brighton UK.) and acquired using Dacquire V10 software and analyzed using Spike 2 software (Baker et al 2000). Left and right hindlimbs are analyzed alternately and typically 5-8 readings per limb were measured at each time point. The mean values will be calculated and converted to forces in Newtons. Data will be analyzed using one-way repeated measures analysis of variance (ANOVA) incorporating Student-Newman-Keuls posthoc test. Differences to baseline will also be compared using Paired t tests.
Administration of compound. The TEST compounds are dissolved in vehicle (to be supplied by the SPONSOR-preferably this will be a saline solution) using doses (to be supplied by the SPONSOR). These will be delivered by the intravenous, intraperitoneal or oral route (to be supplied by the sponsor). Resistance to flexion will be assessed at 10 minutes 30 minutes and 60 minutes following intravenous, intraperitoneal injection, 30, 60 and 90 minutes after oral administration. (Escalating doses (up to three) may be used in the same cohort of animals following wash-out to allow for direct comparison of the dose response).

CC12CC3CC(C)(C1)CC(N)(C3)C2 [Memantine, 1-amino-3,5-dimethyl adamantane]
Treatment of acquired pendular nystagmus [1]: effective | Thermal hyperalgesia and mechanical allodynia [2]: selectively block thermal hyperalgesia and mechanical allodynia | Formation of hippocampal long-term potentiation [3]: enhance the formation of hippocampal long-term potentiation | Spatial memory abilities [3]: improve spatial memory abilities | Affinity for the NMDA receptor [4]: moderate affinity

CC1(C)CC(C)(C)CC(C)(N)C1 [Neramexane, 1-amino-1,3,3,5,5-pentamethylcyclohexane]
Thermal hyperalgesia and mechanical allodynia [2]: selectively block thermal hyperalgesia and mechanical allodynia | Affinity for the NMDA receptor [4]: moderate affinity | Resistance to flexion, Diff of Means ([5]; 3.1 mg/kg, 0 min vs. 10 min, P<0.001): 0.171 | Resistance to flexion, Diff of Means ([5]; 3.1 mg/kg, 0 min vs. 30 min, P<0.001): 0.142 | Resistance to flexion, Diff of Means ([5]; 3.1 mg/kg, 0 min vs. 60 min, P<0.001): 0.218 | Resistance to flexion, Mean ([5]; 3.1 mg/kg, 10 min post-injection, baseline 0 min 0.593, N=13): 0.422 N | Resistance to flexion, Diff of Means ([5]; 3.1 mg/kg, 10 min vs. 60 min, P 0.228, Do Not Test): 0.0474 | Resistance to flexion, Mean ([5]; 3.1 mg/kg, 30 min post-injection, baseline 0 min 0.593, N=13): 0.451 N | Resistance to flexion, Diff of Means ([5]; 3.1 mg/kg, 30 min vs. 10 min, P 0.453, Do Not Test): 0.0293 | Resistance to flexion, Diff of Means ([5]; 3.1 mg/kg, 30 min vs. 60 min, P 0.130, not significant): 0.0767 | Resistance to flexion, Mean ([5]; 3.1 mg/kg, 60 min post-injection, baseline 0 min 0.593, N=13): 0.374 N | Resistance to flexion, Diff of Means ([5]; 6.2 mg/kg, 0 min vs. 10 min, P 0.999, not significant): 0.0000691 | Resistance to flexion, Diff of Means ([5]; 6.2 mg/kg, 0 min vs. 30 min, P 0.013): 0.117 | Resistance to flexion, Diff of Means ([5]; 6.2 mg/kg, 0 min vs. 60 min, P<0.001): 0.172 | Resistance to flexion, Mean ([5]; 6.2 mg/kg, 10 min post-injection, baseline 0 min 0.567, N=11): 0.567 N | Resistance to flexion, Diff of Means ([5]; 6.2 mg/kg, 10 min vs. 30 min, P 0.005): 0.117 | Resistance to flexion, Diff of Means ([5]; 6.2 mg/kg, 10 min vs. 60 min, P<0.001): 0.172 | Resistance to flexion, Mean ([5]; 6.2 mg/kg, 30 min post-injection, baseline 0 min 0.567, N=11): 0.450 N | Resistance to flexion, Diff of Means ([5]; 6.2 mg/kg, 30 min vs. 60 min, P 0.162, not significant): 0.0549 | Resistance to flexion, Mean ([5]; 6.2 mg/kg, 60 min post-injection, baseline 0 min 0.567, N=11): 0.395 N | Resistance to flexion, Diff of Means ([5]; 12.3 mg/kg, 0 min vs. 10 min, P<0.001): 0.114 | Resistance to flexion, Diff of Means ([5]; 12.3 mg/kg, 0 min vs. 30 min, P<0.001): 0.103 | Resistance to flexion, Diff of Means ([5]; 12.3 mg/kg, 0 min vs. 60 min, P<0.001): 0.189 | Resistance to flexion, Mean ([5]; 12.3 mg/kg, 10 min post-injection, baseline 0 min 0.453, N=14): 0.339 N | Resistance to flexion, Diff of Means ([5]; 12.3 mg/kg, 10 min vs. 60 min, P 0.007): 0.0757 | Resistance to flexion, Mean ([5]; 12.3 mg/kg, 30 min post-injection, baseline 0 min 0.453, N=14): 0.350 N | Resistance to flexion, Diff of Means ([5]; 12.3 mg/kg, 30 min vs. 10 min, P 0.693, not significant): 0.0106 | Resistance to flexion, Diff of Means ([5]; 12.3 mg/kg, 30 min vs. 60 min, P 0.007): 0.0863 | Resistance to flexion, Mean ([5]; 12.3 mg/kg, 60 min post-injection, baseline 0 min 0.453, N=14): 0.263 N | Level of hind limb spasticity ([5]; all 3 doses (3.1, 6.2, 12.3 mg/kg), affected EAE mice): reduced the level of hind limb spasticity

— patent US20060205822A1, “1-Aminocyclohexane derivatives for the treatment of multiple sclerosis, emotional lability and pseudobulbar affect” (Forest Laboratories, Inc., priority 2004, published 2006)
